# Results reported in patent US8765779B2, “Tricyclic derivatives and their pharmaceutical use and compositions” (Cephalon, Inc., priority 2009, dated 2014).
# Read-outs that look alike come from different tables or passages of the source.
# Target: T1, human 5-HT6 receptor (Homo sapiens, UniProt P50406)
# T1 construct: host or cells: CHO-K1 cells, stably transfected; membranes prepared in house
# Assay: Human 5-HT6 Receptor Binding Assay ([3H]LSD displacement, scintillation beads)
# Conditions: membranes of CHO-K1 cells with recombinant human 5-HT6, 4 nM [3H]LSD, read-out: h5-HT6 (Ki)
# T1 sequence (P50406 whole entry): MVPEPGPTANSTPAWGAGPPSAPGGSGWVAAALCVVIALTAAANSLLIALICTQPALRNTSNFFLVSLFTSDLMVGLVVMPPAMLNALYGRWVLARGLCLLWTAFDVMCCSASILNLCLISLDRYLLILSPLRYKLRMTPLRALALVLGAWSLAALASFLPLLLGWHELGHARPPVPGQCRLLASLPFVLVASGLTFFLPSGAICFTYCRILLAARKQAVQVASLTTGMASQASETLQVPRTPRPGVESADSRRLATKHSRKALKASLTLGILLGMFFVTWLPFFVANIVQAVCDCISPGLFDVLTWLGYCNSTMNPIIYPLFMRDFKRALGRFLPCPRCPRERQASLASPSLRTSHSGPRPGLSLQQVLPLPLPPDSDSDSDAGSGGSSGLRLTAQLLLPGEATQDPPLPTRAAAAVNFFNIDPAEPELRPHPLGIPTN
Ki (specific data) [µM],SMILES,"Ki (Table 1, class symbols) [µM]"
–,"CC12CCNCC1Oc1ccc(OS(=O)(=O)Cc3ccccc3)cc12 (stereo not shown) [Example 758, 4a-methyl-1,2,3,4,4a,9a-hexahydro[1]benzofuro[2,3-c]pyridin-6-yl phenylmethanesulfonate]",< 0.5
–,CC12CCNCC1Oc1ccc(OS(=O)(=O)c3ccccc3)cc12 (stereo not shown) [Example 759],> 1
–,COc1ccc(S(=O)(=O)Oc2ccc3c(c2)C2(C)CCNCC2O3)cc1 (stereo not shown) [Example 760],> 1
–,COc1cccc(S(=O)(=O)Oc2ccc3c(c2)C2(C)CCNCC2O3)c1 (stereo not shown) [Example 761],> 1
–,CC12CCNCC1Oc1ccc(OS(=O)(=O)c3cccc(Cl)c3)cc12 (stereo not shown) [Example 762],> 1
–,CC12CCNCC1Oc1ccc(OS(=O)(=O)c3ccccc3Cl)cc12 (stereo not shown) [Example 763],> 1
–,CC12CCNCC1Oc1ccc(OS(=O)(=O)c3cc4ccccc4o3)cc12 (stereo not shown) [Example 764],0.5 to 1
–,CC12CCNCC1Oc1ccc(OS(=O)(=O)c3cc4ccccc4o3)cc12 (stereo not shown) [Example 765],0.5 to 1
–,CC(C)c1ccc(S(=O)(=O)Oc2ccc3c(c2)C2(C)CCNCC2O3)cc1 (stereo not shown) [Example 766],0.5 to 1
–,Cc1c(Cl)cccc1S(=O)(=O)Oc1ccc2c(c1)C1(C)CCNCC1O2 (stereo not shown) [Example 767],> 1
–,CC12CCNCC1Oc1ccc(OS(=O)(=O)c3cccc4ccccc34)cc12 (stereo not shown) [Example 768],0.5 to 1
–,CC12CCNCC1Oc1ccc(OS(=O)(=O)c3ccc4ccccc4c3)cc12 (stereo not shown) [Example 769],< 0.5
–,CC12CCNCC1Oc1ccc(OS(=O)(=O)c3cccc4cccnc34)cc12 (stereo not shown) [Example 770],> 1
–,CC12CCNCC1Oc1ccc(OS(=O)(=O)c3csc4ccccc34)cc12 (stereo not shown) [Example 771],< 0.5
–,CC12CCNCC1Oc1ccc(OS(=O)(=O)c3csc4ccccc34)cc12 (stereo not shown) [Example 772],< 0.5
–,CC12CCNCC1Oc1ccc(OS(=O)(=O)c3cc4ccccc4s3)cc12 (stereo not shown) [Example 773],< 0.5
–,CC(C)(C)c1ccc(S(=O)(=O)Oc2ccc3c(c2)C2(C)CCNCC2O3)cc1 (stereo not shown) [Example 774],> 1
–,CC12CCNCC1Oc1ccc(OS(=O)(=O)c3ccc4c(c3)OCCO4)cc12 (stereo not shown) [Example 775],< 0.5
–,CC12CCNCC1Oc1ccc(OS(=O)(=O)c3ccc(-n4cccn4)cc3)cc12 (stereo not shown) [Example 776],> 1
–,CC12CCNCC1Oc1ccc(OS(=O)(=O)c3ccc(-c4cnco4)cc3)cc12 (stereo not shown) [Example 777],> 1
–,CC12CCNCC1Oc1ccc(OS(=O)(=O)c3ccc(C(F)(F)F)cc3)cc12 (stereo not shown) [Example 778],> 1
–,CC12CCNCC1Oc1ccc(OS(=O)(=O)c3ccccc3C(F)(F)F)cc12 (stereo not shown) [Example 779],> 1
–,CC12CCNCC1Oc1ccc(OS(=O)(=O)c3cccc(C(F)(F)F)c3)cc12 (stereo not shown) [Example 780],> 1
–,CC12CCNCC1Oc1ccc(OS(=O)(=O)c3ccc(-c4ccon4)s3)cc12 (stereo not shown) [Example 781],> 1
–,CC12CCNCC1Oc1ccc(OS(=O)(=O)c3ccc(Oc4ccccc4)nc3)cc12 (stereo not shown) [Example 782],> 1
–,Cc1c(S(=O)(=O)Oc2ccc3c(c2)C2(C)CCNCC2O3)sc2ccc(Cl)cc12 (stereo not shown) [Example 783],0.5 to 1

Ki (specific data) [µM],SMILES,"Ki (Table 1, class symbols) [µM]"
–,CC12CCNCC1Oc1ccc(OS(=O)(=O)Cc3ccccc3Cl)cc12 (stereo not shown) [Example 784],< 0.5
–,CC12CCNCC1Oc1ccc(OS(=O)(=O)CCc3ccccc3)cc12 (stereo not shown) [Example 785],> 1
–,CC12CCNCC1Oc1ccc(OS(=O)(=O)Cc3ccccc3F)cc12 (stereo not shown) [Example 786],< 0.5
–,CC12CCNCC1Oc1ccc(OS(=O)(=O)Cc3ccc(F)cc3F)cc12 (stereo not shown) [Example 787],> 1
–,CC12CCNCC1Oc1ccc(OS(=O)(=O)Cc3cccc(C(F)(F)F)c3)cc12 (stereo not shown) [Example 788],< 0.5
–,CC12CCNCC1Oc1ccc(OS(=O)(=O)Cc3ccc(Cl)cc3)cc12 (stereo not shown) [Example 789],> 1
–,CC12CCNCC1Oc1ccc(OS(=O)(=O)Cc3ccc(F)cc3)cc12 (stereo not shown) [Example 790],> 1
–,CC12CCNCC1Oc1ccc(OS(=O)(=O)Cc3cccc(Cl)c3)cc12 (stereo not shown) [Example 791],< 0.5
–,O=S(=O)(Oc1ccc2c(c1)OC1CNCCC21)c1c(Cl)nc2sccn12 (stereo not shown) [Example 792],< 0.5
–,O=S(=O)(Oc1ccc2c(c1)OC1CNCCC21)c1c(Cl)nc2sccn12 (stereo not shown) [Example 793],< 0.5
–,CC(C)c1ccc(S(=O)(=O)Oc2ccc3c(c2)OC2CNCCC32)cc1 (stereo not shown) [Example 794],< 0.5
–,CC(C)c1ccc(S(=O)(=O)Oc2ccc3c(c2)OC2CNCCC32)cc1 (stereo not shown) [Example 795],< 0.5
–,Cc1c(S(=O)(=O)Oc2ccc3c(c2)OC2CNCCC32)sc2ccc(Cl)cc12 (stereo not shown) [Example 796],< 0.5
–,Cc1c(S(=O)(=O)Oc2ccc3c(c2)OC2CNCCC32)sc2ccc(Cl)cc12 (stereo not shown) [Example 797],< 0.5
–,"CC(C)N1CCC2c3ccc(OS(=O)(=O)c4ccc(Cl)cc4)cc3OC2C1 (stereo not shown) [Example 798, 2-(Propan-2-yl)-1,2,3,4,4a,9a-hexahydro[1]benzofuro[2,3-c]pyridin-7-yl-4-chlorobenzenesulfonate]",> 1
–,CN1CCC2c3ccc(OS(=O)(=O)c4ccc(Cl)cc4)cc3OC2C1 (stereo not shown) [Example 799],0.5 to 1
–,O=S(=O)(Oc1ccc2c(c1)OC1CN(C3CCC3)CCC21)c1ccc(Cl)cc1 (stereo not shown) [Example 800],> 1
–,O=S(=O)(Oc1ccc2c(c1)OC1CN(C3CCCC3)CCC21)c1ccc(Cl)cc1 (stereo not shown) [Example 801],> 1
–,O=S(=O)(Oc1ccc2c(c1)OC1CN(C3CCCCC3)CCC21)c1ccc(Cl)cc1 (stereo not shown) [Example 802],0.5 to 1
–,O=S(=O)(Oc1ccc2c(c1)OC1CN(Cc3ccccc3)CCC21)c1ccc(Cl)cc1 (stereo not shown) [Example 803],> 1
–,CC(C)N1CCC2(C)c3cc(OS(=O)(=O)Cc4ccccc4)ccc3OC2C1 (stereo not shown) [Example 804],> 1
–,CC12CCN(C3CCC3)CC1Oc1ccc(OS(=O)(=O)Cc3ccccc3)cc12 (stereo not shown) [Example 805],> 1
–,CC12CCN(C3CCCC3)CC1Oc1ccc(OS(=O)(=O)Cc3ccccc3)cc12 (stereo not shown) [Example 806],> 1
–,CC12CCN(C3CCCCC3)CC1Oc1ccc(OS(=O)(=O)Cc3ccccc3)cc12 (stereo not shown) [Example 807],> 1
–,CC12CCN(Cc3ccccc3)CC1Oc1ccc(OS(=O)(=O)Cc3ccccc3)cc12 (stereo not shown) [Example 808],> 1
–,CN1CCC2(C)c3cc(OS(=O)(=O)Cc4ccccc4)ccc3OC2C1 (stereo not shown) [Example 809],> 1

Ki (specific data) [µM],SMILES,"Ki (Table 1, class symbols) [µM]"
–,"CCN1CCC2(C)c3cc(OS(=O)(=O)Cc4ccccc4)ccc3OC2C1 (stereo not shown) [Example 810, 2-Ethyl-4a-methyl-1,2,3,4,4a,9a-hexahydro[1]benzofuro[2,3-c]pyridin-6-yl phenylmethanesulfonate]",> 1
–,CC12CCN(CCc3ccccc3)CC1Oc1ccc(OS(=O)(=O)Cc3ccccc3)cc12 (stereo not shown) [Example 811],> 1
–,CCN1CCC2c3ccc(OS(=O)(=O)c4ccc(Cl)cc4)cc3OC2C1 (stereo not shown) [Example 812],> 1
–,O=S(=O)(Oc1ccc2c(c1)OC1CN(CCc3ccccc3)CCC21)c1ccc(Cl)cc1 (stereo not shown) [Example 813],> 1
–,"CC(=O)N1CCC2c3cc(NS(=O)(=O)c4ccc5ccccc5c4)ccc3OC2C1 (stereo not shown) [Example 814, N-(2-Acetyl-1,2,3,4,4a,9a-hexahydro[1]benzofuro[2,3-c]pyridin-6-yl)naphthalene-2-sulfonamide]",> 1
–,CC(=O)N1CCC2c3cc(NS(=O)(=O)c4cc(C)ccc4C)ccc3OC2C1 (stereo not shown) [Example 815],> 1
–,CC(=O)N1CCC2c3cc(NS(=O)(=O)c4c(Cl)nc5sccn45)ccc3OC2C1 (stereo not shown) [Example 816],0.5 to 1
–,"O=S(=O)(Nc1ccc2c(c1)C1CCNCC1O2)c1ccccc1 (stereo not shown) [Example 817, N-(1,2,3,4,4a,9a-Hexahydro[1]benzofuro[2,3-c]pyridin-6-yl)benzenesulfonamide]",> 1
–,O=S(=O)(Nc1ccc2c(c1)C1CCNCC1O2)c1c(Cl)nc2sccn12 (stereo not shown) [Example 818],< 0.5
–,O=S(=O)(Nc1ccc2c(c1)C1CCNCC1O2)c1ccc2ccccc2c1 (stereo not shown) [Example 819],< 0.5
0.472,"Cc1ccc(C)c(S(=O)(=O)Nc2ccc3c(c2)C2CCNCC2O3)c1 (stereo not shown) [Example 820, N-(1,2,3,4,4a,9a-hexahydro[1]benzofuro[2,3-c]pyridin-6-yl)-2,5-dimethylbenzenesulfonamide]",< 0.5
–,COc1ccc(S(=O)(=O)Nc2ccc3c(c2)C2CCNCC2O3)cc1 (stereo not shown) [Example 821],> 1
–,COc1cccc(S(=O)(=O)Nc2ccc3c(c2)C2CCNCC2O3)c1 (stereo not shown) [Example 822],> 1
–,O=S(=O)(Nc1ccc2c(c1)C1CCNCC1O2)c1ccc(Cl)cc1 (stereo not shown) [Example 823],< 0.5
–,CC(C)c1ccc(S(=O)(=O)Nc2ccc3c(c2)C2CCNCC2O3)cc1 (stereo not shown) [Example 824],> 1
–,O=S(=O)(Nc1ccc2c(c1)C1CCNCC1O2)c1cccc2ccccc12 (stereo not shown) [Example 825],< 0.5
–,O=S(=O)(Nc1ccc2c(c1)C1CCNCC1O2)c1cccc(Cl)c1 (stereo not shown) [Example 826],< 0.5
–,O=S(=O)(Nc1ccc2c(c1)C1CCNCC1O2)c1ccc(Cl)c(Cl)c1 (stereo not shown) [Example 827],< 0.5
–,O=S(=O)(Nc1ccc2c(c1)C1CCNCC1O2)c1cc(Cl)cc(Cl)c1 (stereo not shown) [Example 828],< 0.5
–,O=S(=O)(Nc1ccc2c(c1)C1CCNCC1O2)c1cccc(Cl)c1Cl (stereo not shown) [Example 829],< 0.5
–,Cc1c(S(=O)(=O)Nc2ccc3c(c2)C2CCNCC2O3)sc2ccc(Cl)cc12 (stereo not shown) [Example 830],< 0.5
–,O=S(=O)(Cc1ccccc1)Nc1ccc2c(c1)C1CCNCC1O2 (stereo not shown) [Example 831],> 1
–,CC(C)S(=O)(=O)Nc1ccc2c(c1)C1CCNCC1O2 (stereo not shown) [Example 832],> 1
–,O=S(=O)(Nc1ccc2c(c1)C1CCNCC1O2)c1cc2ccccc2o1 (stereo not shown) [Example 833],0.5 to 1
–,O=S(=O)(Nc1ccc2c(c1)C1CCNCC1O2)c1cc2ccccc2s1 (stereo not shown) [Example 834],< 0.5
–,"CN(c1ccc2c(c1)OC1CNCCC21)S(=O)(=O)c1c(Cl)nc2sccn12 (stereo not shown) [Example 835, 6-Chloro-N-[1,2,3,4,4a,9a-hexahydro[1]benzofuro[2,3-c]pyridin-7-yl]-N-methylimidazo[2,1-b][1,3]thiazole-5-sulfonamide]",< 0.5
